Measured values from patent publication US20230355597A1, “COMPOUNDS, COMPOSITIONS, AND METHODS FOR THE TREATMENT AND PREVENTION OF AVIAN PATHOGENIC E. COLI (APEC)” (OHIO STATE INNOVATION FOUNDATION, priority 2018, published 2023).
Converted amounts (≈) assume the structure as drawn. Marks after values point to notes of the source that are not given here.

What was measured:
[1] = system: AI-2 activity of APEC O78; experiment: AI-2 bioluminescence indicator assay (V. harveyi BB170); conditions: APEC O78, 100 µM
AI-2 activity of APEC O2 = experiment: as above; conditions: APEC O2, 100 µM
AI-2 activity of APEC O1 = experiment: as above; conditions: APEC O1, 100 µM
AI-2 activity of APEC O8 = experiment: as above; conditions: APEC O8, 100 µM
[2] = system: AI-2 activity of APEC O15; experiment: as above; conditions: APEC O15, 100 µM
[3] = system: AI-2 activity of APEC O18; experiment: as above; conditions: APEC O18, 100 µM
[4] = system: AI-2 activity of APEC O35; experiment: as above; conditions: APEC O35, 100 µM
[5] = system: AI-2 activity of APEC O109; experiment: as above; conditions: APEC O109, 100 µM
[6] = system: AI-2 activity of APEC O115; experiment: as above; conditions: APEC O115, 100 µM
Rif^r APEC O78 [7] = experiment: Wax moth (Galleria mellonella) larva infection model (AI-2 inhibitors)
Rif^r APEC O78 [8] = experiment: In vivo screening of quorum sensing inhibitors in APEC infected broiler chickens; conditions: for reduction in chicken mortality: DMSO control mortality normalized to 100%; for Mortality rate (%): oral gavage once a day, day 4 to day 8, DMSO control 66.7%; for Reduction in APEC lesions severity, Air-sacs (%) / Reduction in APEC lesions severity, Heart (%) / Reduction in APEC lesions severity, Liver (%) / Reduction in APEC lesions severity, Lung (%): vs DMSO treated control
APEC O78 [9] = type: cell-based, avian pathogenic Escherichia coli (APEC)
APEC O1 = type: cell-based, avian pathogenic Escherichia coli (APEC); conditions: APEC O1, M63 media; MIC/MBC
APEC O2 = type: cell-based, avian pathogenic Escherichia coli (APEC); conditions: APEC O2, M63 media; MIC/MBC
APEC O8 = type: cell-based, avian pathogenic Escherichia coli (APEC); conditions: APEC O8, M63 media; MIC/MBC
APEC O15 = type: cell-based, avian pathogenic Escherichia coli (APEC); conditions: APEC O15, M63 media; MIC/MBC
APEC O18 = type: cell-based, avian pathogenic Escherichia coli (APEC); conditions: APEC O18, M63 media; MIC/MBC
APEC O35 = type: cell-based, avian pathogenic Escherichia coli (APEC); conditions: APEC O35, M63 media; MIC/MBC
APEC O115 = type: cell-based, avian pathogenic Escherichia coli (APEC); conditions: APEC O115, M63 media; MIC/MBC
APEC O109 = type: cell-based, avian pathogenic Escherichia coli (APEC); conditions: APEC O109, M63 media; MIC/MBC
APEC O78-53 = type: cell-based, avian pathogenic Escherichia coli (APEC); conditions: APEC O78-53, M63 media; MIC/MBC
APEC O1-63 = type: cell-based, avian pathogenic Escherichia coli (APEC); conditions: APEC O1-63, M63 media; MIC/MBC
APEC O2-211 = type: cell-based, avian pathogenic Escherichia coli (APEC); conditions: APEC O2-211, M63 media; MIC/MBC
[10] = system: biofilm embedded APEC O78; experiment: MBEC High-throughput assay; type: cell-based, avian pathogenic Escherichia coli (APEC); conditions: biofilm embedded APEC O78; superscript = multiple of MIC (footnote)
Procedure: Effect against biofilm embedded APEC. The effect of cidal SMs against biofilm embedded APEC was determined using MBEC High-throughput (HTP) assay (Innovotech Inc., AB, Canada). Briefly, 150 µL of 0.05 OD600 adjusted APEC O78 culture was aliquoted into each well of the MBEC device containing polystyrene pegs and incubated at 37° C. for 36 h in LB media under stationary condition. […] The plate was incubated in the dark for 18 h at 37° C. with rotation at 110 rpm. The DMSO (1%) and M63 media were used as positive and negative controls, respectively. Following incubation, MIC of SMs in challenged plate was recorded. The SMs exposed pegs were then transferred to a new 96-well plate containing PBS and sonicated for 30 mins (Aquasonic ultrasonic cleaner, VWR) to disrupt the biofilm. […] Biofilm embedded APEC bacteria were enumerated and minimum biofilm eradication concentration (MBEC) of […] were determined. Two independent experiments were conducted.

APEC O78 [11] = experiment: Confocal microscopy bacterial cytological profiling; type: cell-based, avian pathogenic Escherichia coli (APEC); conditions: 2X MBC
Procedure: Confocal and scanning electron microscopy. Confocal microscopy was used for bacterial cytological profiling (BCP) to identify the cellular pathways targeted by SMs as described previously. […] After incubation, treated cultures were centrifuged, washed, and resuspended in 100 μL PBS. […] Cultures were then centrifuged, washed, and resuspended in PBS to 1⁄10th volume of the original cultures.

APEC O78 [12] = experiment: Loss of 260/280 nm absorbing materials assay; type: cell-based, avian pathogenic Escherichia coli (APEC); conditions: 2X MBC, 1 h, *P<0.05 vs DMSO
[13] = system: intracellular APEC O78 in Caco-2 cells; experiment: Intracellular survival assay (cidal SMs); conditions: O78, Caco-2, 6 h treatment; superscript = multiple of MIC
[14] = system: intracellular APEC O78 in HD11 cells; experiment: Intracellular survival assay (cidal SMs); conditions: O78, HD11, 6 h treatment; superscript = multiple of MIC
[15] = system: intracellular APEC O78 in THP-1 cells; experiment: Intracellular survival assay (cidal SMs); conditions: O78, THP-1, 6 h treatment; superscript = multiple of MIC
[16] = system: intracellular APEC O2 in Caco-2 cells; experiment: Intracellular survival assay (cidal SMs); conditions: O2, Caco-2, 6 h treatment; superscript = multiple of MIC
[17] = system: intracellular APEC O2 in HD11 cells; experiment: Intracellular survival assay (cidal SMs); conditions: O2, HD11, 6 h treatment; superscript = multiple of MIC
[18] = system: intracellular APEC O2 in THP-1 cells; experiment: Intracellular survival assay (cidal SMs); conditions: O2, THP-1, 6 h treatment; superscript = multiple of MIC
[19] = system: intracellular APEC O1 in Caco-2 cells; experiment: Intracellular survival assay (cidal SMs); conditions: O1, Caco-2, 6 h treatment; superscript = multiple of MIC
[20] = system: intracellular APEC O1 in HD11 cells; experiment: Intracellular survival assay (cidal SMs); conditions: O1, HD11, 6 h treatment; superscript = multiple of MIC
[21] = system: intracellular APEC O1 in THP-1 cells; experiment: Intracellular survival assay (cidal SMs); conditions: O1, THP-1, 6 h treatment; superscript = multiple of MIC
Rif^r APEC O78 [22] = experiment: In vivo efficacy of growth inhibitors in APEC infected broiler chickens

## Cc1ccccc1N1CCN(C2CCCN(C(=O)c3ccc(F)c(Cl)c3)C2)CC1 (stereo not drawn) [C2, 1-[1-{3-chloro-4-fluorbenzoyl)-3-piperdinyl]-4-(2-methylphenyl)piperazine]
[1]
  Inhibition % of AI-2 activity: 92%
AI-2 activity of APEC O2
  Inhibition % of AI-2 activity: 96%
AI-2 activity of APEC O1
  Inhibition % of AI-2 activity: 64%
AI-2 activity of APEC O8
  Inhibition % of AI-2 activity: 20%
[2]
  Inhibition % of AI-2 activity: 27%
[3]
  Inhibition % of AI-2 activity: 43%
[4]
  Inhibition % of AI-2 activity: 55%
[5]
  Inhibition % of AI-2 activity: 57%
[6]
  Inhibition % of AI-2 activity: 52%
Rif^r APEC O78 [7]; 48 h post treatment
  larval death: no larval death
Rif^r APEC O78 [7]; 72 h
  clearance of APEC in live larvae: 100%
Rif^r APEC O78 [8]
  reduction in chicken mortality: 50%
  Mortality rate (%): 33.3%
  Reduction in APEC lesions severity, Air-sacs (%): 63.3%
  Reduction in APEC lesions severity, Heart (%): 37.5%
  Reduction in APEC lesions severity, Liver (%): 45.5%
  Reduction in APEC lesions severity, Lung (%): 88.9%

## O=C(CCN1CCN(c2ccccc2F)CC1)Nc1ccc(Br)cc1 [C7, N-(4-bromophenyl)-3-[4-(2-fluomphenyl)-1-piperazinyl]propanamide]
[1]
  Inhibition % of AI-2 activity: 94%
AI-2 activity of APEC O2
  Inhibition % of AI-2 activity: 83%
AI-2 activity of APEC O1
  Inhibition % of AI-2 activity: 47%
AI-2 activity of APEC O8
  Inhibition % of AI-2 activity: 2%
[2]
  Inhibition % of AI-2 activity: 36%
[3]
  Inhibition % of AI-2 activity: 48%
[4]
  Inhibition % of AI-2 activity: 62%
[5]
  Inhibition % of AI-2 activity: 67%
[6]
  Inhibition % of AI-2 activity: 45%
Rif^r APEC O78 [7]; 72 h post treatment
  larval death: no larval death
Rif^r APEC O78 [8]
  reduction in chicken mortality: did not reduce
  Mortality rate (%): 66.7%
  Reduction in APEC lesions severity, Air-sacs (%): 33.3%
  Reduction in APEC lesions severity, Heart (%): 33.3%
  Reduction in APEC lesions severity, Liver (%): 33.3%
  Reduction in APEC lesions severity, Lung (%): 83.3%

## COc1cc(CNCCc2ccc(C)cc2)ccc1OCC(O)CN1CCCC1 (stereo not drawn) [SM3]
APEC O78 [9]; APEC O78
  MBC relative to MIC: identical to MIC
APEC O78 [9]; APEC O78, M63 media, MIC/MBC
  MIC: 100 µM (≈ 39.9 µg/mL)
APEC O78 [9]; APEC O78, M63 media, cell prints MIC/MBC
  MBC: 100 µM (≈ 39.9 µg/mL)
APEC O1
  MBC: 200 µM (≈ 79.7 µg/mL)
  MIC: 100 µM (≈ 39.9 µg/mL)
APEC O2
  MBC: 200 µM (≈ 79.7 µg/mL)
  MIC: 100 µM (≈ 39.9 µg/mL)
APEC O8
  MBC: 100 µM (≈ 39.9 µg/mL)
  MIC: 100 µM (≈ 39.9 µg/mL)
APEC O15
  MBC: 100 µM (≈ 39.9 µg/mL)
  MIC: 100 µM (≈ 39.9 µg/mL)
APEC O18
  MBC: 100 µM (≈ 39.9 µg/mL)
  MIC: 100 µM (≈ 39.9 µg/mL)
APEC O35
  MBC: 200 µM (≈ 79.7 µg/mL)
  MIC: 100 µM (≈ 39.9 µg/mL)
APEC O115
  MBC: 100 µM (≈ 39.9 µg/mL)
  MIC: 100 µM (≈ 39.9 µg/mL)
APEC O109
  MBC: 200 µM (≈ 79.7 µg/mL)
  MIC: 100 µM (≈ 39.9 µg/mL)
APEC O78-53
  MBC: 200 µM (≈ 79.7 µg/mL)
  MIC: 100 µM (≈ 39.9 µg/mL)
APEC O1-63
  MBC: 200 µM (≈ 79.7 µg/mL)
  MIC: 200 µM (≈ 79.7 µg/mL)
APEC O2-211
  MBC: 100 µM (≈ 39.9 µg/mL)
  MIC: 100 µM (≈ 39.9 µg/mL)
[10]
  MBEC: 50^b µM
APEC O78 [11]
  cytological profile (confocal, FM4-64 / SYTO-9): membrane pore formers
APEC O78 [12]; 260 nm absorbing material in supernatant
  Absorbance 260: 3.77
APEC O78 [12]; 280 nm absorbing material in supernatant
  Absorbance 280: 2.84*
[13]
  SMs intracellular APEC clearance concentration: 100^a µM
[14]
  SMs intracellular APEC clearance concentration: 100^a µM
[15]
  SMs intracellular APEC clearance concentration: 100^a µM
[16]
  SMs intracellular APEC clearance concentration: >200 µM
[17]
  SMs intracellular APEC clearance concentration: 200^b µM
[18]
  SMs intracellular APEC clearance concentration: 100^a µM
[19]
  SMs intracellular APEC clearance concentration: >200 µM
[20]
  SMs intracellular APEC clearance concentration: 200^b µM
[21]
  SMs intracellular APEC clearance concentration: 200^b µM
Rif^r APEC O78 [22]; average of liver, heart, lung and kidney, vs untreated control
  reduction of average APEC load in internal organs: either exacerbated or did not reduce
Rif^r APEC O78 [22]; untreated control = 100%
  reduction of APEC lesions severity (%), Air-sacs (airsacculitis): -29.4%
  reduction of APEC lesions severity (%), Heart (pericarditis): 4%
  reduction of APEC lesions severity (%), Liver (perihepatitis): -20%
  reduction of APEC lesions severity (%), Lung (lung congestion): 0%
Rif^r APEC O78 [22]; vs untreated control
  reduction of APEC load, Heart: -2.1 log CFU/g of tissues
  reduction of APEC load, Kidney: -1.4 log CFU/g of tissues
  reduction of APEC load, Liver: -1.8 log CFU/g of tissues
  reduction of APEC load, Lung: -2.0 log CFU/g of tissues
Rif^r APEC O78 [22]; weight of live chickens before necropsy minus weight before treatment
  Body weight gain (BWG): 254.58±95.03
